Measured values published in US20090253622A1, “USE OF TLR3 AGONISTS FOR THE TREATMENT OF NEURODEGENERATIVE DISORDERS” (Nederlandse Organisatie voor toegepast - …, priority 2006, published 2009).

Experiments:
[1] = system: TLR3; experiment: TLR expression in cultured adult human astrocytes by real-time PCR; type: cell-based
Method: Adult human astrocytes from post-mortem subcortical white matter samples were isolated and cultured as previously described (Bsibsi et al., J Neuropath Exp Neurol 61:1013-1021 [2002]). As determined by specific staining for cellular markers for astrocytes (glial fibrillary acidic protein; GFAP) and microglia (CD68) astrocyte cultures were essentially homogeneous; as a rule all cells expressed GFAP and none of them expressed CD68. When indicated astrocytes were stimulated with 50 μg/mL poly I:C (Amersham Pharmacia Biotech, Piscataway, N.J.) or 200 ng/mL LPS (Sigma-Aldrich, Steinheim, Germany) to activate TLR3 and TLR4, respectively. These doses were selected on the basis of maximum effects in astrocytes. It should be noted that contaminants in the commercial LPS preparation could possibly lead to some level of TLR2 activation in addition to TLR4 by the LPS preparation used but not of TLR3. When stimulated with cytokines, astrocytes were supplied with TNF-α, IFN-γ, IL-1β (each at 500 U/mL), IL-4 (at 250 U/mL), IL-6 (at 200 U/mL), IL-12 (at 50 ng/mL), IL-10 (at 20 ng/mL) and TGF-β (at 12.5 ng/mL) (PeproTech, Rocky Hill, N.Y.). Control cDNA array profiling experiments included treatment with 50 μg/mL cycloheximide for 30 min prior to and during poly I:C treatment, or with 200 U/mL IFNβ (Avonex). Endothelial cells (UVEC) were isolated from umbillical cords and cultured on gelatin-coated dishes in M199 supplemented with 20 nM HEPES, 10% human serum, 10% heat-inactivated NBCS, 150 mg/mL ECGF, 5 U/mL heparin, 100 IU/mL penicillin and […] streptomycin. Total cellular RNA was isolated using RNA-Bee™ as previously described (Bsibsi et al., [2002] supra). Subsequently, RNA was reverse transcribed into cDNA and levels of TLR1-10 and β-actin as a reference were determined by quantitative real-time PCR. The following fluorogenic molecular beacons and primers (Biolegio, Nijmegen, The Netherlands) were used: The β-actin beacon contained 5′ fluorescein VIC, and the 3′ quencher Dabcyl. […] Data were analyzed using sequence detector version 1.7 software.

[2] = system: astrocytes from TLR3-deficient mice; experiment: IL-6 release by astrocytes from TLR3-deficient mice (ELISA); type: cell-based; details: TLR3-deficient mouse astrocytes, 48 h
Method: (§1) Astrocytes were cultured in poly L-lysine coated 96 well-flat-bottom plates at 1×10^4 cells per well in 100 l DMEM/HAM-F10 medium containing 10% FCS and antibiotic supplements for 24 h to obtain post-confluent cultures. Recombinant human stathmin was next added to astrocytes, and parallel control stimuli were performed with either poly I:C, an established TLR3 agonist, or ultrapure lipopolysaccharides, established TLR4 agonists. After addition of these stimuli astrocytes were incubated for another 48 h. Astrocyte culture supernatants were subsequently collected and using a commercial ELISA kit levels of IL-6 were determined, as a marker for TLR-mediated activation of murine astrocytes.

[3] = system: neurons in organotypic human brain slice cultures; experiment: Neuronal survival in organotypic human brain slice cultures (calcein-AM / ethidium homodimer-1); type: cell-based; details: slices cultured 1 week; p<0.03
Method: Organotypic human brain slice cultures were set up and analyzed as previously described (Verwer et al., FASEB J. 16:54-60 [2002]). Briefly, tissue blocks were collected from different post-mortem cortical samples and 200-μm slices were produced. These slices were cultured for 1 week in Poly I:C- or LPS-conditioned astrocyte media that were obtained upon culturing astrocytes in the presence of either 50 μg/mL poly I:C or 200 ng/mL LPS. As a control untreated astrocyte-conditioned media from the same donor was used. All astrocyte-conditioned media were harvested after 48 h and stored at −20° C. Viability of neurons in the slice cultures was evaluated using calcein-AM and ethidium homodimer-1 (molecular Probes, Eugene, Oreg.). A Zeiss 410 Invert confocal laser scanning microscope was used to inspect the slices and quantify staining.

[4] = system: TLR3; experiment: CXCL8 release by cultured human astrocytes (ELISA); type: cell-based
Method: Cos-7 cells (25,000 cells per well in 96-well plates) were transfected for 5 h with 768 pools of cDNA derived from human brain tumours (5 pooled tumours including meningioma, oligodendroglioma, astrocytoma grades II and IV, and medulloblastoma; NCI CGAP Brn35; Invitrogen) using lipofectamine, after which cells were thoroughly washed. Transfection with green-fluorescent protein-encoding cDNA was used as an internal control for transfection efficiencies. After continued culture of the transfected cells for 48 h, 75 μL of each culture supernatant was harvested and added to cultured human astrocytes seeded at 1,000 cells per well in 75 μL. After 48 h of culture, supernatants were harvested and evaluated for CXCL8 release using ELISA. Stimulation of astrocytes with poly I:C served as positive controls for CXCL8 release in all cases, non-transfected Cos 7 culture supernatants as negative controls.
(§2) Purified recombinant stathmin was exposed to two different conditions that differentially affect the extent of helix formation within the protein chain. One part of the protein preparation was exposed to 5% trifluoroacetic acid (TFA) in water for 1 h at 37° C., strongly acidic conditions that tend to disrupt an alpha helix. In parallel, another part was exposed for 1 h at 37° C. to 5% of the helix-promoting solvent trifluoroethanol (TFE) in phosphate-buffered saline (PBS). After exposure to these different conditions, both protein samples were extensively dialysed for 48 h against several changes of PBS. Next, the samples were analyzed by […] circular dichroism spectroscopy that allows calculation of helical content on the basis of elipticity in the absorption of circularly polarized light. In both cases, another part of the dialyzed sample was tested in parallel for induction of TLR3-mediated release of CXCL8 (IL-8) in human astrocytes as described elsewhere in this application.

[5] = system: TLR3; experiment: IL-6 release by astrocytes from wild-type mice (ELISA); type: cell-based; details: wild-type mouse astrocytes, 48 h
Method: as §1

[6] = system: human adult astrocytes; experiment: cDNA array profiling of cytokine, chemokine and growth factor genes in human adult astrocytes; type: cell-based
Method: Adult human astrocytes from post-mortem subcortical white matter samples were isolated and cultured as previously described (Bsibsi et al., J Neuropath Exp Neurol 61:1013-1021 [2002]). […] When indicated astrocytes were stimulated with 50 μg/mL poly I:C (Amersham Pharmacia Biotech, Piscataway, N.J.) or 200 ng/mL LPS (Sigma-Aldrich, Steinheim, Germany) to activate TLR3 and TLR4, respectively. […] It should be noted that contaminants in the commercial LPS preparation could possibly lead to some level of TLR2 activation in addition to TLR4 by the LPS preparation used but not of TLR3. When stimulated with cytokines, astrocytes were supplied with TNF-α, IFN-γ, IL-1β (each at 500 U/mL), IL-4 (at 250 U/mL), IL-6 (at 200 U/mL), IL-12 (at 50 ng/mL), IL-10 (at 20 ng/mL) and TGF-β (at 12.5 ng/mL) (PeproTech, Rocky Hill, N.Y.). […] Endothelial cells (UVEC) were isolated from umbillical cords and cultured on gelatin-coated dishes in M199 supplemented with 20 nM HEPES, 10% human serum, 10% heat-inactivated NBCS, 150 mg/mL ECGF, 5 U/mL heparin, 100 IU/mL penicillin and […] streptomycin.
Analysis of the mRNA profile of astrocytes was performed by hybrid selection of ^32P-labeled cDNA on Clontech human cytokine/chemokine Atlas® arrays as previous described (Meeuwsen et al., Glia 43:243-253 [2003]). Hybridization signals for each of the 268 cytokine, chemokine and growth factor (receptor) genes were calculated as the mean of duplicate measurements, corrected for background intensity and quantified using software provided by the manufacturer. Relative expression was calculated by dividing these hybridization signals by the mean signal for all nine housekeeping reference genes on the corresponding array.
Gene profiling was performed using astrocytes from four different control donors.
Astrocytes were isolated from post mortem human brain tissue samples and cultured under conditions as described elsewhere in this application. One part of the culture was stimulated with 50 μg/ml stathmin, the second with 50 μg/ml poly I:C and a third was left untreated to served as a reference control. Following another 48 h RNA was isolated from each culture and ^32P-labeled cDNA was prepared by reverse transcription. Subsequent hybrid selection of these ^32P-labeled cDNA samples was performed on Clontech Atlas® arrays containing selective probes for 268 cytokines, chemokines and growth factors, and various receptors for these mediators. All hybridization signals were calculated as the mean of duplicate measurements, corrected for background intensity and quantified using software provided by the manufacturer. Relative signal strength was next calculated by dividing these averaged hybridization signals by the mean signal for all nine housekeeping reference genes that were also present on each array as a reference.

[7] = system: experimental autoimmune encephalomyelitis; details: mice treated 5, 7 and 9 days after induction of the disease; cited from earlier work
[8] = biological target: human Toll-like receptor 3 (human) (UniProt O15455); experiment: cell-based or functional assay
[9] = Circular dichroism spectroscopy, helical content; type: physicochemical; details: pre-treated 1 h at 37° C., dialysed 48 h against PBS
Method: as §2, with “[…] […]” for “In parallel, another part was exposed for 1 h at 37° C. to 5% of the helix-promoting solvent trifluoroethanol (TFE) in phosphate-buffered saline (PBS). After exposure to these different conditions, both protein samples were extensively dialysed for 48 h against several changes of PBS.”

[10] = agonist-treated vs untreated astrocytes, 48 h

For “TGF-β: anti-inflammatory cytokine, 12.5 ng/mL”, the “induction of TLR3 expression (in words)” value [1] was “No induction of TLR3”.

In the case of `OO` [H2O2], the “induction of TLR3 expression (in words)” value [1] is reported as “selective induction of TLR3”.

For poly I:C, the IL-6 release [2] was “fully abrogated”, the survival of neurons [3] was “promoted neuronal survival equally well” and the “release levels of CXCL8” value ([4]; human adult astrocyte cultures) was “around 200 ng/mL”. For the same molecule, the IL-6 release [5] was “marked IL-6 release”, the “change in expression of genes encoding immune mediators and growth factors” value ([6]; 50 μg/ml, 48 h) was “comprehensive and marked change in expression” and the “Jag1, downregulation factor” value ([6]; 48 h) was 1.96. For the same molecule, the “p40 subunit of IL-12 and IL-23, down-regulation factor” value ([6]; 48 h) was about 2, the “ERBB4 receptor protein-tyrosine kinase, ratio of expression” value [6, 10] was 0.43 and the “Smo, ratio of expression” value [6, 10] was 0.48. The “VEGF receptor 2, ratio of expression” value [6, 10] was 0.22, the “induction of chemokines CXCL8, CXCL2 and CCL3” value ([6]; astrocytes) was “strongly induced” and the “induction of IL-9” value ([6]; astrocytes, 48 h) was 7.5 fold. The “induction of IL-10” value ([6]; astrocytes, 48 h) was 2.3 fold, the “induction of IL-11” value ([6]; astrocytes, 48 h) was 3.2 fold and the “induction of TNF-α” value ([6]; astrocytes, 48 h) was “induced”. For the same molecule, the “induction of tumour necrosis factor-stimulated gene 6 (TSG-6)” value ([6]; astrocytes, 48 h) was “over 10 fold”, the “induction of CCL4, CXCL6, CCL5, CXCL9 and CCL2” value ([6]; astrocytes, to a lesser extent) was “leads to induction” and the “disease development in EAE” value [7] was “almost completely blocks subsequent disease development”.

For “recombinant human stathmin (from UniProt P16949 1-149) (ligand)”, the Pearson correlation coefficient (r) between gene expression profiles (268 genes) of human astrocytes stimulated with 50 µg/ml stathmin or 50 µg/ml poly I:C [8] was 0.951 and the TLR3-mediated release of CXCL8 (IL-8) in human astrocytes: TFE-treated stathmin (37% alpha helix) against TFA-treated stathmin (12% alpha helix) [8] was 3 fold.

B1: IL-10: anti-inflammatory cytokine, 20 ng/mL (protein, UniProt P22301 19-178, looked up)
Interleukin-10: SPGQGTQSENSCTHFPGNLPNMLRDLRDAFSRVKTFFQMKDQLDNLLLKESLLEDFKGYLGCQALSEMIQFYLEEVMPQAENQDPDIKAHVNSLGENLKTLRLRLRRCHRFLPCENKSKAVEQVKNAFNKLQEKGIYKAMSEFDIFINYIEAYMTMKIRN
For B1, the “induction of TLR3 expression (in words)” value [1] was “No induction of TLR3”.

B2: TFA-treated sample: purified recombinant stathmin exposed to 5% TFA in water for 1 h at 37° C. and dialysed against PBS (protein, UniProt P16949 2-149, looked up)
Stathmin: ASSDIQVKELEKRASGQAFELILSPRSKESVPEFPLSPPKKKDLSLEEIQKKLEAAEERRKSHEAEVLKQLAEKREHEKEVLQKAIEENNNFSKMAEEKLTHKMEANKENREAQMAAKLERLREKDKHIEEVRKNKESKDPADETEAD
modifications: TFA-treated
notes: purified recombinant stathmin exposed to 5% TFA in water for 1 h at 37° C. and dialysed against PBS
B2 gave an alpha helical content [9] of 12%.

B3: TFE-treated sample: purified recombinant stathmin exposed to 5% TFE in PBS for 1 h at 37° C. and dialysed against PBS (protein, UniProt P16949 2-149, looked up)
Stathmin: ASSDIQVKELEKRASGQAFELILSPRSKESVPEFPLSPPKKKDLSLEEIQKKLEAAEERRKSHEAEVLKQLAEKREHEKEVLQKAIEENNNFSKMAEEKLTHKMEANKENREAQMAAKLERLREKDKHIEEVRKNKESKDPADETEAD
modifications: TFE-treated
notes: purified recombinant stathmin exposed to 5% TFE in PBS for 1 h at 37° C. and dialysed against PBS
For B3, the alpha helical content [9] was 37% and the “activity in activating astrocytes (CXCL8/IL-8 release), TFE-treated relative to TFA-treated sample” value ([4]; on weight basis) was “about 3 fold”.
